Assay results reported in PubChem BioAssay AID624376 (Broad Institute, 2012).
Records with an inconclusive call do not appear. Active and inactive are the calls of the source. No rule for the calls is given here.

Assay: inhibitors of EBV LMP1 NF-kappaB signaling – cell-based, luciferase reporter, luminescence, dry powder, set 2, dose response (AID 624376)
Conditions: LMP1-induced NF-kappaB luciferase reporter cells, luminescence

SMILES	activity change, negative = inhibition (at 35 µM (top of the series))	also measured
O=C(C[C@@H]1C[C@@H]2c3cc(NC(=O)c4cccnc4)ccc3O[C@@H]2[C@H](CO)O1)NCC(F)(F)F	-8.21% (inactive)	–
Cc1noc(C)c1S(=O)(=O)Nc1ccc2c(c1)C(=O)N([C@H](C)CO)C[C@@H](C)[C@H](CN(C)Cc1ccc(C(F)(F)F)cc1)OCCCC[C@H](C)O2	-0.786% (inactive)	–
O=C(Cc1ccccn1)NCC[C@H]1CC[C@@H](NC(=O)Nc2ccc(Cl)cc2)[C@H](CO)O1	-2.95% (inactive)	–
C[C@@H]1CN([C@@H](C)CO)C(=O)c2c(c3ccccc3n2C)-c2ccccc2CO[C@@H]1CN(C)C(=O)Nc1ccc(F)cc1	6.54% (inactive)	–
COc1ccccc1C(=O)Nc1ccc2c(c1)C(=O)N(C)[C@@H]1CC[C@H](CC(=O)NCCc3ccncc3)O[C@H]1CO2	-9.84% (inactive)	–
Cc1noc(C)c1S(=O)(=O)Nc1ccc2c(c1)C(=O)N([C@H](C)CO)C[C@@H](C)[C@H](CN(C)Cc1ccc(C(F)(F)F)cc1)OCCCC[C@@H](C)O2	-6% (inactive)	–
Cc1noc(C)c1S(=O)(=O)Nc1ccc2c(c1)C(=O)N([C@@H](C)CO)C[C@H](C)[C@@H](CN(C)Cc1ccc(C(F)(F)F)cc1)OCCCC[C@H](C)O2	-1.9% (inactive)	–
Cc1noc(C)c1S(=O)(=O)Nc1ccc2c(c1)C(=O)N([C@H](C)CO)C[C@H](C)[C@H](CN(C)Cc1ccc(C(F)(F)F)cc1)OCCCC[C@@H](C)O2	16.1% (inactive)	–
O=C(C[C@@H]1C[C@H]2c3cc(NS(=O)(=O)c4ccc(F)cc4)ccc3O[C@H]2[C@@H](CO)O1)NC1CCCCC1	2.38% (inactive)	–
Cc1noc(C)c1S(=O)(=O)Nc1ccc2c(c1)C(=O)N([C@@H](C)CO)C[C@@H](C)[C@@H](CN(C)Cc1ccc(C(F)(F)F)cc1)OCCCC[C@@H](C)O2	-7.77% (inactive)	–
Cc1noc(C)c1S(=O)(=O)Nc1ccc2c(c1)C(=O)N([C@@H](C)CO)C[C@@H](C)[C@@H](CN(C)Cc1ccc(C(F)(F)F)cc1)OCCCC[C@H](C)O2	13% (inactive)	–
C[C@H]1CN([C@@H](C)CO)C(=O)Cc2cc(NC(=O)Cc3ccccc3)ccc2O[C@@H]1CN(C)Cc1ccc(C(F)(F)F)cc1	-3.24% (inactive)	–
O=C(Cc1ccccn1)NCC[C@H]1CC[C@@H](NC(=O)Nc2ccc(Cl)cc2)[C@@H](CO)O1	0.728% (inactive)	–
Cc1noc(C)c1S(=O)(=O)Nc1ccc2c(c1)C(=O)N([C@@H](C)CO)C[C@H](C)[C@H](CN(C)Cc1ccc(C(F)(F)F)cc1)OCCCC[C@H](C)O2	-10.2% (inactive)	–
C[C@H](NC(=O)C[C@H]1C=C[C@H](NC(=O)Cc2ccccn2)[C@H](CO)O1)c1ccccc1	3.9% (inactive)	–
C[C@@H]1CN([C@@H](C)CO)C(=O)c2c(c3ccccc3n2C)-c2ccccc2CO[C@H]1CN(C)C(=O)Nc1ccc(F)cc1	-7.17% (inactive)	–
C[C@H](NC(=O)C[C@H]1C=C[C@@H](NC(=O)Cc2ccccn2)[C@@H](CO)O1)c1ccccc1	-0.671% (inactive)	–
C[C@H](CO)N1C[C@H](C)[C@@H](CN(C)Cc2ccc(C(F)(F)F)cc2)Oc2ccc(NC(=O)Cc3ccccc3)cc2CC1=O	17.6% (inactive)	–
Cc1noc(C)c1S(=O)(=O)Nc1ccc2c(c1)C(=O)N([C@H](C)CO)C[C@@H](C)[C@@H](CN(C)Cc1ccc(C(F)(F)F)cc1)OCCCC[C@@H](C)O2	-6.08% (inactive)	–
COC(=O)C[C@@H]1C[C@@H]2c3cc(NC(=O)CN(C)C)ccc3O[C@@H]2[C@@H](CO)O1	-4.49% (inactive)	–

SMILES	activity change, negative = inhibition (at 35 µM (top of the series))	also measured
CS(=O)(=O)Nc1ccc2c(c1)[C@H]1C[C@@H](CC(=O)NCC3CC3)O[C@@H](CO)[C@H]1O2	5.22% (inactive)	–
C[C@@H](NC(=O)C[C@@H]1C=C[C@H](NC(=O)Cc2ccccn2)[C@H](CO)O1)c1ccccc1	1.6% (inactive)	–
Cc1noc(C)c1S(=O)(=O)Nc1ccc2c(c1)C(=O)N([C@H](C)CO)C[C@H](C)[C@H](CN(C)Cc1ccc(C(F)(F)F)cc1)OCCCC[C@H](C)O2	–	activity change, negative = inhibition (at 16 µM (top of the series)): -0.443% (inactive)
C[C@H](NC(=O)C[C@@H]1C=C[C@@H](NC(=O)Cc2ccccn2)[C@H](CO)O1)c1ccccc1	4.21% (inactive)	–
C[C@@H](NC(=O)C[C@@H]1C=C[C@@H](NC(=O)Cc2ccccn2)[C@H](CO)O1)c1ccccc1	-0.374% (inactive)	–
COC(=O)C[C@H]1C[C@H]2c3cc(NC(=O)CN(C)C)ccc3O[C@H]2[C@H](CO)O1	-9.49% (inactive)	–
COc1ccccc1CNC(=O)C[C@H]1C[C@@H]2c3cc(NC(=O)CN(C)C)ccc3O[C@@H]2[C@@H](CO)O1	-6.3% (inactive)	–
C[C@@H](NC(=O)C[C@@H]1C=C[C@H](NC(=O)Cc2ccccn2)[C@@H](CO)O1)c1ccccc1	-7.31% (inactive)	–
Cc1noc(C)c1S(=O)(=O)Nc1ccc2c(c1)C(=O)N([C@H](C)CO)C[C@H](C)[C@@H](CN(C)Cc1ccc(C(F)(F)F)cc1)OCCCC[C@H](C)O2	27.4% (inactive)	–
Cc1noc(C)c1S(=O)(=O)Nc1ccc2c(c1)C(=O)N([C@H](C)CO)C[C@H](C)[C@@H](CN(C)Cc1ccc(C(F)(F)F)cc1)OCCCC[C@@H](C)O2	-11.7% (inactive)	–
C[C@H]1CN([C@@H](C)CO)C(=O)Cc2cc(NC(=O)Cc3ccccc3)ccc2O[C@H]1CN(C)Cc1ccc(C(F)(F)F)cc1	18.5% (inactive)	–
C[C@@H]1CN([C@H](C)CO)C(=O)c2c(c3ccccc3n2C)-c2ccccc2CO[C@H]1CN(C)C(=O)Nc1ccc(F)cc1	-0.608% (inactive)	–
C[C@@H](NC(=O)C[C@H]1C=C[C@H](NC(=O)Cc2ccccn2)[C@@H](CO)O1)c1ccccc1	2.05% (inactive)	–
CN(C)c1ccc2c(c1)[C@@H]1C[C@@H](CC(=O)NCc3ccc(Oc4ccccc4)cc3)O[C@@H](CO)[C@@H]1O2	-26.2% (inactive)	–
C[C@@H](NC(=O)C[C@H]1C[C@@H]2c3cc(NC(=O)c4cccnc4)ccc3O[C@@H]2[C@@H](CO)O1)c1ccccc1	6.76% (inactive)	–
O=C(Cc1ccccn1)NCC[C@H]1CC[C@H](NC(=O)Nc2ccc(Cl)cc2)[C@@H](CO)O1	4.16% (inactive)	–
C[C@H](NC(=O)C[C@@H]1C=C[C@@H](NC(=O)Cc2ccccn2)[C@@H](CO)O1)c1ccccc1	2.64% (inactive)	–
O=C(C[C@H]1C[C@@H]2c3cc(NS(=O)(=O)c4ccc(F)cc4)ccc3O[C@@H]2[C@H](CO)O1)NC1CCCCC1	-0.993% (inactive)	–
Cc1noc(C)c1S(=O)(=O)Nc1ccc2c(c1)C(=O)N([C@@H](C)CO)C[C@H](C)[C@H](CN(C)Cc1ccc(C(F)(F)F)cc1)OCCCC[C@@H](C)O2	–	activity change, negative = inhibition (at 30 µM (top of the series)): 2.6% (inactive)
C[C@H](NC(=O)C[C@H]1C=C[C@H](NC(=O)Cc2ccccn2)[C@@H](CO)O1)c1ccccc1	10.7% (inactive)	–

SMILES	activity change, negative = inhibition (at 35 µM (top of the series))	also measured
Cc1noc(C)c1S(=O)(=O)Nc1ccc2c(c1)C(=O)N([C@H](C)CO)C[C@@H](C)[C@@H](CN(C)Cc1ccc(C(F)(F)F)cc1)OCCCC[C@H](C)O2	16.2% (inactive)	–
C[C@@H]1CN([C@@H](C)CO)C(=O)Cc2cc(NC(=O)Cc3ccccc3)ccc2O[C@@H]1CN(C)Cc1ccc(C(F)(F)F)cc1	5.83% (inactive)	–
COc1cccc(S(=O)(=O)N(C)C[C@H]2Oc3cc(C4=CCCCC4)ccc3S(=O)(=O)N([C@H](C)CO)C[C@H]2C)c1	-4.73% (inactive)	–
O=C(C[C@@H]1C[C@@H]2c3cc(NS(=O)(=O)c4ccc(F)cc4)ccc3O[C@@H]2[C@H](CO)O1)NC1CCCCC1	7.3% (inactive)	–
C[C@@H]1CN([C@H](C)CO)C(=O)Cc2cc(NC(=O)Cc3ccccc3)ccc2O[C@H]1CN(C)Cc1ccc(C(F)(F)F)cc1	-5.26% (inactive)	–
CO[C@H]1CN(C)C(=O)c2ccc(NC(=O)C3CC3)cc2OC[C@H](C)N(C(=O)c2ccccn2)C[C@H]1C	-14.8% (inactive)	–
CO[C@@H]1CN(C)C(=O)c2ccc(NC(C)=O)cc2OC[C@@H](C)N(Cc2ccccc2F)C[C@H]1C	0.725% (inactive)	–
C[C@@H](NC(=O)C[C@H]1C=C[C@@H](NC(=O)Cc2ccccn2)[C@@H](CO)O1)c1ccccc1	-14% (inactive)	–
C[C@H](NC(=O)C[C@H]1C=C[C@@H](NC(=O)Cc2ccccn2)[C@H](CO)O1)c1ccccc1	0.463% (inactive)	–
CS(=O)(=O)Nc1ccc2c(c1)[C@@H]1C[C@H](CC(=O)NCC3CC3)O[C@H](CO)[C@@H]1O2	-9.8% (inactive)	–
C[C@H](NC(=O)C[C@@H]1C=C[C@H](NC(=O)Cc2ccccn2)[C@@H](CO)O1)c1ccccc1	5.95% (inactive)	–
O=C(Cc1ccccn1)NCC[C@@H]1CC[C@@H](NC(=O)Nc2ccc(Cl)cc2)[C@H](CO)O1	0.177% (inactive)	–
O=C(Cc1ccccn1)NCC[C@@H]1CC[C@H](NC(=O)Nc2ccc(Cl)cc2)[C@H](CO)O1	-9.97% (inactive)	–
C[C@@H]1CN([C@H](C)CO)C(=O)c2c(c3ccccc3n2C)-c2ccccc2CO[C@@H]1CN(C)C(=O)Nc1ccc(F)cc1	3.49% (inactive)	–
C[C@H](CO)N1C[C@H](C)[C@H](CN(C)Cc2ccc(C(F)(F)F)cc2)Oc2ccc(NC(=O)Cc3ccccc3)cc2CC1=O	3.81% (inactive)	–
C[C@H]1CN([C@@H](C)CO)C(=O)c2c(c3ccccc3n2C)-c2ccccc2CO[C@H]1CN(C)C(=O)Nc1ccc(F)cc1	1.49% (inactive)	–
C[C@@H](NC(=O)C[C@H]1C=C[C@H](NC(=O)Cc2ccccn2)[C@H](CO)O1)c1ccccc1	-2.05% (inactive)	–
O=C(Cc1ccccn1)NCC[C@@H]1CC[C@@H](NC(=O)Nc2ccc(Cl)cc2)[C@@H](CO)O1	-0.581% (inactive)	–
